For one data set, the system named is MRSA ATCC BAA-2094. The experiment in a line: MIC determination in broth. Format: cell-based, Staphylococcus aureus. Conditions: STIP3 variants, highest conc. tested 100 μg/mL; cation-adjusted MH broth, ~10^5 CFU/mL, 2-fold dilution series, 37°C, 16 h. As to the method: (§1) M. luteus ATCC 4698, S. aureus ATCC 29213, a panel of 7 MRSA (ATCC MP-2) strains, which includes ATCC BAA-41, BAA-42, BAA-44, BAA-1683, BAA-2094, BAA-2313, and 33592, and a series of additional bacterial isolates from human and veterinary cases were used in this study (Table S6). Bacterial strains were routinely grown in lysogeny broth (LB: 10 g/L tryptone, 5 g/L yeast extract, 10 g/L NaCl) at 30°C (M. luteus) or 37°C (Staphylococcus spp.) prior to use in specific experiments described below.
(§2) The MICs were measured for bioactive peptides identified from the initial screen. Cation-adjusted Mueller-Hinton (MH) broth was used as the growth medium for MIC determination experiments. Bacterial cultures were diluted to an OD of 5 × 10^−4 (∼10^5 CFU/mL) in 200 μL MH broth mixed with peptides in a 2-fold dilution series arrayed in 96-well plates. Plates were incubated without shaking at 30 or 37°C depending on the organism.

For a further data set, the system named is MRSA ATCC 33592. Nature of the data set: MIC determination in broth. Format: cell-based, Staphylococcus aureus. The settings on record: Table S5; STIP3 variants, highest conc. tested 100 μg/mL; cation-adjusted MH broth, ~10^5 CFU/mL, 2-fold dilution series, 37°C, 16 h. On the procedure: as §1, §2
A further data set deals with MRSA ATCC BAA-44. Nature of the data set: MIC determination in broth. Type of data set: cell-based, Staphylococcus aureus. The settings on record: STIP3 variants, highest conc. tested 100 μg/mL; cation-adjusted MH broth, ~10^5 CFU/mL, 2-fold dilution series, 37°C, 16 h. As to the method: as §1, §2
The test system of a further data set is S. aureus ATCC 29213. Nature of the data set: MIC determination in broth. Type of data set: cell-based, Staphylococcus aureus. The settings on record: STIP3 variants, highest conc. tested 100 μg/mL; cation-adjusted MH broth, ~10^5 CFU/mL, 2-fold dilution series, 37°C, 16 h. As to the method:
as §1, §2

For a further data set, the system named is MRSA ATCC BAA-1683. The experiment in a line: MIC determination in broth. Type of data set: cell-based, Staphylococcus aureus. Conditions: STIP3 variants, highest conc. tested 100 μg/mL; cation-adjusted MH broth, ~10^5 CFU/mL, 2-fold dilution series, 37°C, 16 h. On the procedure:
as §1, §2

For another data set, the system named is MRSA ATCC BAA-2313. Nature of the data set: MIC determination in broth. Type of data set: cell-based, Staphylococcus aureus. The settings on record: STIP3 variants, highest conc. tested 100 μg/mL; cation-adjusted MH broth, ~10^5 CFU/mL, 2-fold dilution series, 37°C, 16 h. As to the method: as §1, §2
A further data set has as its system MRSA ATCC BAA-42. The experiment in a line: MIC determination in broth. Format: cell-based, Staphylococcus aureus. Conditions: STIP3 variants, highest conc. tested 100 μg/mL; cation-adjusted MH broth, ~10^5 CFU/mL, 2-fold dilution series, 37°C, 16 h. As to the method:
as §1, §2

Another data set relates to MRSA ATCC BAA-41. Nature of the data set: MIC determination in broth. Format: cell-based, Staphylococcus aureus. Conditions: STIP3 variants, highest conc. tested 100 μg/mL; cation-adjusted MH broth, ~10^5 CFU/mL, 2-fold dilution series, 37°C, 16 h. On the procedure:
as §1, §2

Another data set deals with SspA. The experiment in a line: SspA protease resuspended at 2 mg/mL in 100 mM HEPES (pH 7.8). Conditions: 37°C, up to 5 h.

As for “TVKGLVKWILNVVKKFA [STIP3-14, rationally designed STIP3-1 variant]”, the “MIC, S. aureus ATCC BAA 2094 (SCCmec V)” value against MRSA ATCC BAA-2094 stood at 50 µg/mL. Besides, the “MIC, S. aureus ATCC 33592 (SCCmec III)” value against MRSA ATCC 33592 worked out at 12.5 µg/mL. Moreover, in the data set on MRSA ATCC BAA-44, the “MIC, S. aureus ATCC BAA 44 (SCCmec I)” value was 25 µg/mL. Moreover, in the data set with S. aureus ATCC 29213, the “MIC, S. aureus ATCC 29213” value came out at 25 µg/mL. Also, the “MIC, S. aureus ATCC BAA 1683 (SCCmec IV)” value with MRSA ATCC BAA-1683 came out at 25 µg/mL. For the same substance, in the data set on MRSA ATCC BAA-2313, the “MIC, S. aureus ATCC BAA 2313 (SCCmec XI)” value is 12.5 µg/mL. Further, the “MIC, S. aureus ATCC BAA 42 (SCCmec VI)” value in the data set with MRSA ATCC BAA-42 came to 25 µg/mL. For the same substance, the “MIC, S. aureus ATCC BAA 41 (SCCmec II)” value in the data set with MRSA ATCC BAA-41 was determined as 25 µg/mL.
Consider “TVKGLVKWILNVVKKFA-NH2 [STIP3-30, rationally designed STIP3-1 variant, C-terminal amide]”, for which the “MIC, S. aureus ATCC BAA 2094 (SCCmec V)” value in the data set on MRSA ATCC BAA-2094 worked out at 25 µg/mL. The “MIC, S. aureus ATCC 33592 (SCCmec III)” value in the data set on MRSA ATCC 33592 came to 12.5 µg/mL. Also, the “MIC, S. aureus ATCC BAA 44 (SCCmec I)” value against MRSA ATCC BAA-44 was 12.5 µg/mL. The “MIC, S. aureus ATCC 29213” value against S. aureus ATCC 29213 worked out at 12.5 µg/mL. In addition, the “MIC, S. aureus ATCC BAA 1683 (SCCmec IV)” value against MRSA ATCC BAA-1683 is 12.5 µg/mL. Moreover, the “MIC, S. aureus ATCC BAA 2313 (SCCmec XI)” value in the data set on MRSA ATCC BAA-2313 amounted to 25 µg/mL. In addition, the “MIC, S. aureus ATCC BAA 42 (SCCmec VI)” value with MRSA ATCC BAA-42 was 25 µg/mL. The “MIC, S. aureus ATCC BAA 41 (SCCmec II)” value in the data set with MRSA ATCC BAA-41 was found to be 25 µg/mL.
With “TVKKLVKWILKTVKKFA [STIP3-18, rationally designed STIP3-1 variant]”, in the data set with MRSA ATCC BAA-2094, the “MIC, S. aureus ATCC BAA 2094 (SCCmec V)” value was found to be 100 µg/mL. Besides, the “MIC, S. aureus ATCC 33592 (SCCmec III)” value in the data set with MRSA ATCC 33592 was 100 µg/mL. Besides, in the data set on MRSA ATCC BAA-44, the “MIC, S. aureus ATCC BAA 44 (SCCmec I)” value came out at 100 µg/mL. Further, in the data set on S. aureus ATCC 29213, the “MIC, S. aureus ATCC 29213” value was 100 µg/mL. Moreover, in the data set on MRSA ATCC BAA-1683, the “MIC, S. aureus ATCC BAA 1683 (SCCmec IV)” value is listed as “> (The > symbol indicates that no inhibition was observed at 100 μg/mL for the STIP3 variants)”. Besides, the “MIC, S. aureus ATCC BAA 2313 (SCCmec XI)” value in the data set with MRSA ATCC BAA-2313 is on record as “> (The > symbol indicates that no inhibition was observed at 100 μg/mL for the STIP3 variants)”. In the data set on MRSA ATCC BAA-42, the “MIC, S. aureus ATCC BAA 42 (SCCmec VI)” value is given as “> (The > symbol indicates that no inhibition was observed at 100 μg/mL for the STIP3 variants)”. Further, the “MIC, S. aureus ATCC BAA 41 (SCCmec II)” value in the data set with MRSA ATCC BAA-41 amounted to 100 µg/mL.
On to “TVKVLVKWILKVVAKFA [STIP3-26, rationally designed STIP3-1 variant]”, for which, in the data set on MRSA ATCC BAA-2094, the “MIC, S. aureus ATCC BAA 2094 (SCCmec V)” value is “> (The > symbol indicates that no inhibition was observed at 100 μg/mL for the STIP3 variants)”. Also, the “MIC, S. aureus ATCC 33592 (SCCmec III)” value in the data set on MRSA ATCC 33592 is on record as “> (The > symbol indicates that no inhibition was observed at 100 μg/mL for the STIP3 variants)”. Besides, the “MIC, S. aureus ATCC BAA 44 (SCCmec I)” value against MRSA ATCC BAA-44 is listed as “> (The > symbol indicates that no inhibition was observed at 100 μg/mL for the STIP3 variants)”. Moreover, the “MIC, S. aureus ATCC 29213” value with S. aureus ATCC 29213 is “> (The > symbol indicates that no inhibition was observed at 100 μg/mL for the STIP3 variants)”. The “MIC, S. aureus ATCC BAA 1683 (SCCmec IV)” value against MRSA ATCC BAA-1683 was “> (The > symbol indicates that no inhibition was observed at 100 μg/mL for the STIP3 variants)”. Further, in the data set with MRSA ATCC BAA-2313, the “MIC, S. aureus ATCC BAA 2313 (SCCmec XI)” value is given as “> (The > symbol indicates that no inhibition was observed at 100 μg/mL for the STIP3 variants)”. Further, the “MIC, S. aureus ATCC BAA 42 (SCCmec VI)” value in the data set with MRSA ATCC BAA-42 was “> (The > symbol indicates that no inhibition was observed at 100 μg/mL for the STIP3 variants)”. In addition, the “MIC, S. aureus ATCC BAA 41 (SCCmec II)” value in the data set on MRSA ATCC BAA-41 is listed as “> (The > symbol indicates that no inhibition was observed at 100 μg/mL for the STIP3 variants)”.
With “TVRALVKWILRTVAKFA [STIP3-20, rationally designed STIP3-1 variant]”, the “MIC, S. aureus ATCC BAA 2094 (SCCmec V)” value against MRSA ATCC BAA-2094 is 25 µg/mL. In addition, the “MIC, S. aureus ATCC 33592 (SCCmec III)” value against MRSA ATCC 33592 turned out to be 25 µg/mL. The “MIC, S. aureus ATCC BAA 44 (SCCmec I)” value in the data set on MRSA ATCC BAA-44 was determined as 25 µg/mL. In addition, the “MIC, S. aureus ATCC 29213” value against S. aureus ATCC 29213 was found to be 25 µg/mL. Further, the “MIC, S. aureus ATCC BAA 1683 (SCCmec IV)” value in the data set on MRSA ATCC BAA-1683 turned out to be 25 µg/mL. The “MIC, S. aureus ATCC BAA 2313 (SCCmec XI)” value in the data set with MRSA ATCC BAA-2313 worked out at 50 µg/mL. Besides, the “MIC, S. aureus ATCC BAA 42 (SCCmec VI)” value in the data set with MRSA ATCC BAA-42 was 25 µg/mL. Besides, the “MIC, S. aureus ATCC BAA 41 (SCCmec II)” value with MRSA ATCC BAA-41 was 12.5 µg/mL.
For the substance “TVRALVRWILRTVARFA [STIP3-23, rationally designed STIP3-1 variant]”, the “MIC, S. aureus ATCC BAA 2094 (SCCmec V)” value with MRSA ATCC BAA-2094 turned out to be 50 µg/mL. Besides, the “MIC, S. aureus ATCC 33592 (SCCmec III)” value in the data set with MRSA ATCC 33592 amounted to 25 µg/mL. Further, the “MIC, S. aureus ATCC BAA 44 (SCCmec I)” value in the data set with MRSA ATCC BAA-44 was 25 µg/mL. The “MIC, S. aureus ATCC 29213” value with S. aureus ATCC 29213 was found to be 25 µg/mL. In addition, the “MIC, S. aureus ATCC BAA 1683 (SCCmec IV)” value with MRSA ATCC BAA-1683 turned out to be 25 µg/mL. Besides, the “MIC, S. aureus ATCC BAA 2313 (SCCmec XI)” value with MRSA ATCC BAA-2313 turned out to be 25 µg/mL. Besides, the “MIC, S. aureus ATCC BAA 42 (SCCmec VI)” value against MRSA ATCC BAA-42 is 50 µg/mL. For the same substance, the “MIC, S. aureus ATCC BAA 41 (SCCmec II)” value against MRSA ATCC BAA-41 stood at 6.25 µg/mL.
On to “TVXALVXWILXTVAXFA [STIP3-22, rationally designed STIP3-1 variant with L-ornithine]”, for which the “MIC, S. aureus ATCC BAA 2094 (SCCmec V)” value in the data set on MRSA ATCC BAA-2094 was found to be 25 µg/mL. Besides, the “MIC, S. aureus ATCC 33592 (SCCmec III)” value against MRSA ATCC 33592 worked out at 25 µg/mL. Also, the “MIC, S. aureus ATCC BAA 44 (SCCmec I)” value in the data set on MRSA ATCC BAA-44 worked out at 25 µg/mL. In addition, the “MIC, S. aureus ATCC 29213” value in the data set with S. aureus ATCC 29213 was found to be 25 µg/mL. The “MIC, S. aureus ATCC BAA 1683 (SCCmec IV)” value with MRSA ATCC BAA-1683 amounted to 25 µg/mL. Moreover, in the data set on MRSA ATCC BAA-2313, the “MIC, S. aureus ATCC BAA 2313 (SCCmec XI)” value came to 100 µg/mL. The “MIC, S. aureus ATCC BAA 42 (SCCmec VI)” value with MRSA ATCC BAA-42 worked out at 25 µg/mL. Moreover, the “MIC, S. aureus ATCC BAA 41 (SCCmec II)” value against MRSA ATCC BAA-41 was determined as 25 µg/mL.
For f-MTKDIVETVGGLVKWILDTVKKFA, the not cleaved entry in the data set with SspA was “no SspA cleavage was observed”.

The values are drawn from paper PMC8694143 (Microbiology Spectrum, 2021).
